Where two headings read alike, the source gives them in different places.
Experiments:
UO-31 = test: SRB 48 h growth assay, Renal UO-31; assay type: cell-based, human; details: UO-31, Renal
SNB-19 = test: SRB 48 h growth assay, CNS SNB-19; assay type: cell-based, human; details: Homo sapiens, SNB-19, CNS; for CC50: read-out: Log10 LC50 (converted)
SF-539 = test: SRB 48 h growth assay, CNS SF-539; assay type: cell-based, human; details: SF-539, CNS; for GI50: Homo sapiens
T-47D = test: SRB 48 h growth assay, Breast T-47D; assay type: cell-based, human; details: for GI50: Homo sapiens, T47D
UACC-62 = test: SRB 48 h growth assay, Melanoma UACC-62; assay type: cell-based, human; details: UACC-62, Melanoma
HCT-15 = test: SRB 48 h growth assay, Colon HCT-15; assay type: cell-based, human; details: HCT-15, Colon; for GI50: Homo sapiens
[1] = tested on: two prostate cancer cell line (PC-3, DU-145); test: in vitro anticancer activity, prostate panel; assay type: cell-based; details: Homo sapiens; two prostate cancer cell lines, exposure at least 48 h; read-out: GI50, range over panel
HL-60(TB) = test: SRB 48 h growth assay, Leukemia HL-60(TB); assay type: cell-based, human
RXF393 = test: SRB 48 h growth assay, Renal RXF393; assay type: cell-based, human; details: for GI50 / CC50: Homo sapiens; for CC50: RXF 393, read-out: Log10 LC50 (converted)
MALME-3M = test: SRB 48 h growth assay, Melanoma MALME-3M; assay type: cell-based, human
SW-620 = test: SRB 48 h growth assay, Colon SW-620; assay type: cell-based, human; details: SW-620, Colon; for GI50 / CC50: Homo sapiens; for CC50: read-out: Log10 LC50 (converted)
OVCAR-4 = test: SRB 48 h growth assay, Ovarian OVCAR-4; assay type: cell-based, human; details: OVCAR-4, Ovarian
A549/ATCC = test: SRB 48 h growth assay, Non-small Cell Lung A549/ATCC; assay type: cell-based, human; details: for GI50 / CC50: Homo sapiens; for CC50: read-out: Log10 LC50 (converted)
DU-145 = test: SRB 48 h growth assay, Prostate DU-145; assay type: cell-based, human; details: DU-145, Prostate
MDA-MB-231/ATCC = test: SRB 48 h growth assay, Breast MDA-MB-231/ATCC; assay type: cell-based, human; details: for GI50 / CC50: Homo sapiens; for CC50: read-out: Log10 LC50 (converted)
MDA-MB-468 = test: SRB 48 h growth assay, Breast MDA-MB-468; assay type: cell-based, human; details: MDA-MB-468, Breast
RPMI-8226 = test: SRB 48 h growth assay, Leukemia RPMI-8226; assay type: cell-based, human; details: RPMI-8226, Leukemia
A498 = test: SRB 48 h growth assay, Renal A498; assay type: cell-based, human; details: for GI50: Homo sapiens
M14 = test: SRB 48 h growth assay, Melanoma M14; assay type: cell-based, human; details: for GI50: Homo sapiens
IGROV1 = test: SRB 48 h growth assay, Ovarian IGROV1; assay type: cell-based, human
K-562 = test: SRB 48 h growth assay, Leukemia K-562; assay type: cell-based, human; details: for GI50 / CC50: Homo sapiens, K562, K-562, Leukemia; for CC50: read-out: Log10 LC50 (converted); for Log10 TGI50: K-562, Leukemia
NCI-H226 = test: SRB 48 h growth assay, Non-small Cell Lung NCI-H226; assay type: cell-based, human
OVCAR-8 = test: SRB 48 h growth assay, Ovarian OVCAR-8; assay type: cell-based, human; details: Homo sapiens, OVCAR-8, Ovarian; for CC50: read-out: Log10 LC50 (converted)
[2] = tested on: six CNS cancer cell line (SF-268, SF-295, SF-539, SNB-19, SNB-75 and U251); test: in vitro anticancer activity, CNS panel; assay type: cell-based; details: Homo sapiens; six CNS cancer cell lines, exposure at least 48 h; read-out: GI50, range over panel
SNB-75 = test: SRB 48 h growth assay, CNS SNB-75; assay type: cell-based, human; details: SNB-75, CNS; for GI50: Homo sapiens
SF-268 = test: SRB 48 h growth assay, CNS SF-268; assay type: cell-based, human; details: SF-268, CNS
[3] = Homo sapiens, read-out: Growth Inhibition GI50
[4] = Homo sapiens, read-out: Log10 GI50 (converted)
[5] = Homo sapiens, read-out: Log10 LC50 (converted)
[6] = read-out: Growth Inhibition GI50
[7] = read-out: Log10 GI50 (converted)
[8] = RXF 393, read-out: Growth Inhibition GI50
[9] = RXF 393, read-out: Log10 GI50 (converted)

C#Cc1ccc(-n2c(/C=C/c3ccc4ccccc4n3)nc3ncccc3c2=O)cc1 [4t, (E)-3-(4-Ethynylphenyl)-2-(2-(quinolin-2-yl)vinyl)pyrido[2,3-d]pyrimidin-4(3H)-one]
GI50 (UO-31; [3]): 310 nM | GI50 (UO-31; [4]): 316 nM | CC50 (UO-31; [5]): 6.92 µM | Log10 TGI50 (UO-31): −5.78 | GI50 (SNB-19; [6]): 720 nM | GI50 (SNB-19; [7]): 724 nM | CC50 (SNB-19): > 100 µM | GI50 (SF-539; [6]): 200 nM | GI50 (SF-539; [7]): 204 nM | Log10 TGI50 (SF-539): −6.29 | Log10 TGI50 (T-47D): −6.05 | GI50 (T-47D; [6]): 290 nM | GI50 (T-47D; [7]): 295 nM | GI50 (UACC-62; [3]): 390 nM | GI50 (UACC-62; [4]): 398 nM | CC50 (UACC-62; [5]): 9.33 µM | Log10 TGI50 (UACC-62): −5.67 | Log10 TGI50 (HCT-15): −5.88 | GI50 (HCT-15; [6]): 320 nM | GI50 (HCT-15; [7]): 331 nM | GI50 [1]: 3870 to 4100 nM | Log10 TGI50 (HL-60(TB)): −6.07 | GI50 (HL-60(TB); [3]): 290 nM | GI50 (HL-60(TB); [4]): 295 nM | CC50 (HL-60(TB); [5]): > 100 µM | Log10 TGI50 (RXF393): −6.07 | GI50 (RXF393; [8]): 250 nM | GI50 (RXF393; [9]): 257 nM | CC50 (RXF393): 5.01 µM | Log10 TGI50 (MALME-3M): −5.50 | GI50 (MALME-3M; [3]): 1210 nM | GI50 (MALME-3M; [4]): 1200 nM | CC50 (MALME-3M; [5]): 8.32 µM | GI50 (SW-620; [6]): 350 nM | GI50 (SW-620; [7]): 355 nM | CC50 (SW-620): 3.89 µM | Log10 TGI50 (SW-620): −5.90 | GI50 (OVCAR-4; [3]): 330 nM | GI50 (OVCAR-4; [4]): 339 nM | CC50 (OVCAR-4; [5]): > 100 µM | Log10 TGI50 (OVCAR-4): −5.46 | Log10 TGI50 (A549/ATCC): −5.74 | GI50 (A549/ATCC; [6]): 350 nM | GI50 (A549/ATCC; [7]): 355 nM | CC50 (A549/ATCC): > 100 µM | Log10 TGI50 (DU-145): −6.15 | GI50 (DU-145; [3]): 280 nM | GI50 (DU-145; [4]): 282 nM | Log10 TGI50 (MDA-MB-231/ATCC): −5.93 | GI50 (MDA-MB-231/ATCC; [6]): 330 nM | GI50 (MDA-MB-231/ATCC; [7]): 331 nM | CC50 (MDA-MB-231/ATCC): > 100 µM | GI50 (MDA-MB-468; [3]): 230 nM | GI50 (MDA-MB-468; [4]): 234 nM | CC50 (MDA-MB-468; [5]): 3.47 µM | Log10 TGI50 (MDA-MB-468): −6.05 | GI50 (RPMI-8226; [3]): 260 nM | GI50 (RPMI-8226; [4]): 269 nM | Log10 TGI50 (RPMI-8226): −5.99 | Log10 TGI50 (A498): −6.14 | GI50 (A498; [6]): 220 nM | GI50 (A498; [7]): 229 nM | Log10 TGI50 (M14): −6.18 | GI50 (M14; [6]): 260 nM | GI50 (M14; [7]): 263 nM | Log10 TGI50 (IGROV1): −5.87 | GI50 (IGROV1; Homo sapiens, IGROV-1, read-out: Growth Inhibition GI50): 400 nM | GI50 (IGROV1; Homo sapiens, IGROV-1, read-out: Log10 GI50 (converted)): 398 nM | CC50 (IGROV1; Homo sapiens, IGROV-1, read-out: Log10 LC50 (converted)): 5.37 µM | GI50 (K-562; [6]): 330 nM | GI50 (K-562; [7]): 331 nM | CC50 (K-562): > 100 µM | Log10 TGI50 (K-562): >−4.00 | Log10 TGI50 (NCI-H226): −6.15 | GI50 (NCI-H226; [3]): 250 nM | GI50 (NCI-H226; [4]): 251 nM | LC50 (NCI-H226; [5]): 5.89 µM | GI50 (OVCAR-8; [6]): 340 nM | GI50 (OVCAR-8; [7]): 347 nM | CC50 (OVCAR-8): > 100 µM | GI50 [2]: 940 to 5240 nM | GI50 (SNB-75; [6]): 330 nM | GI50 (SNB-75; [7]): 339 nM | Log10 TGI50 (SNB-75): −5.85 | GI50 (SF-268; [3]): 380 nM | GI50 (SF-268; [4]): 389 nM | CC50 (SF-268; [5]): > 100 µM | Log10 TGI50 (SF-268): −5.74

C#Cc1ccc(-n2c(/C=C/c3ccc(Cl)c(F)c3)nc3ncccc3c2=O)cc1 [4g, (E)-2-(4-chloro-3-fluorostyryl)-3-(4-ethynylphenyl)pyrido[2,3-d]pyrimidin-4(3H)-one]
CC50 (SNB-19): > 100 µM | GI50 (UACC-62; [3]): 480 nM | GI50 (UACC-62; [4]): 490 nM | GI50 [1]: 340 nM | Log10 TGI50 (HL-60(TB)): >−4.00 | GI50 (RXF393; [8]): 280 nM | GI50 (RXF393; [9]): 282 nM | CC50 (RXF393): > 100 µM | GI50 (SW-620; [6]): 370 nM | GI50 (SW-620; [7]): 380 nM | CC50 (SW-620): > 100 µM | GI50 (OVCAR-4; [3]): 480 nM | GI50 (OVCAR-4; [4]): 479 nM | CC50 (A549/ATCC): > 100 µM | CC50 (DU-145; [5]): > 100 µM | CC50 (MDA-MB-231/ATCC): > 100 µM | GI50 (MDA-MB-468; [3]): 240 nM | GI50 (MDA-MB-468; [4]): 245 nM | GI50 (RPMI-8226; [3]): 250 nM | GI50 (RPMI-8226; [4]): 257 nM | CC50 (RPMI-8226; [5]): > 100 µM | GI50 (M14; [6]): 300 nM | GI50 (M14; [7]): 302 nM | GI50 (K-562; [6]): 330 nM | GI50 (K-562; [7]): 339 nM | CC50 (K-562): > 100 µM | Log10 TGI50 (K-562): >−4.00 | GI50 (NCI-H226; [3]): 350 nM | GI50 (NCI-H226; [4]): 355 nM | GI50 (OVCAR-8; [6]): 350 nM | GI50 (OVCAR-8; [7]): 355 nM | CC50 (OVCAR-8): > 100 µM | GI50 [2]: 340 nM | GI50 (SNB-75; [6]): 340 nM | GI50 (SNB-75; [7]): 339 nM

From patent US9783537B2, “3-(4-ethylnylphenyl) pyridopyrimidinone compounds and process for preparation thereof useful as potential anticancer agents” (Council of Scientific & Industrial Research, priority 2013, dated 2017)
